PubChem BioAssay (NCI)
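Cells were grown in 96-well plates and exposed to each compound for 48 hours at five concentrations; endpoints were interpolated linearly between bracketing concentrations, or set to the highest concentration if not reached. TGI marks complete inhibition of growth.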

Assays:
Test in all cases: NCI tumour cell line growth inhibition, 48 h
SK-MEL-28 melanoma = tested on: SK-MEL-28 melanoma
UO-31 renal = tested on: UO-31 renal
T-47D breast = tested on: T-47D breast
NCI-H460 lung = tested on: NCI-H460 lung
SK-OV-3 ovarian = tested on: SK-OV-3 ovarian
A498 renal = tested on: A498 renal
OVCAR-3 ovarian = tested on: OVCAR-3 ovarian
MOLT-4 leukemia = tested on: MOLT-4 leukemia
OVCAR-8 ovarian = tested on: OVCAR-8 ovarian
LOX IMVI melanoma = tested on: LOX IMVI melanoma
UACC-257 melanoma = tested on: UACC-257 melanoma
PC-3 prostate = tested on: PC-3 prostate
HS 578T breast = tested on: HS 578T breast
NCI-H226 lung = tested on: NCI-H226 lung
SK-MEL-5 melanoma = tested on: SK-MEL-5 melanoma
CCRF-CEM leukemia = tested on: CCRF-CEM leukemia

| SMILES | TGI (SK-MEL-28 melanoma) [µM] | TGI (UO-31 renal) [µM] | TGI (T-47D breast) [µM] | TGI (NCI-H460 lung) [µM] | TGI (SK-OV-3 ovarian) [µM] | TGI (A498 renal) [µM] | TGI (OVCAR-3 ovarian) [µM] | TGI (MOLT-4 leukemia) [µM] | TGI (OVCAR-8 ovarian) [µM] | TGI (LOX IMVI melanoma) [µM] | TGI (UACC-257 melanoma) [µM] | TGI (PC-3 prostate) [µM] | TGI (HS 578T breast) [µM] | TGI (NCI-H226 lung) [µM] | TGI (SK-MEL-5 melanoma) [µM] | TGI (CCRF-CEM leukemia) [µM] |
| --- | --- | --- | --- | --- | --- | --- | --- | --- | --- | --- | --- | --- | --- | --- | --- | --- |
| COc1cc2ccc1OCc1cccc(n1)COc1ccc(cc1OC)C=NCCNCCN=C2 | > 100 | > 100 | > 100 | > 100 | > 100 | > 100 | > 100 | > 100 | > 100 | > 100 | > 100 | > 100 | > 100 | > 100 | > 100 | – |
| CC1CN=C(Nc2ccc(F)c(Cl)c2)S1 (stereo unspecified) | > 100 | 91.8 | > 100 | > 100 | > 100 | > 100 | > 100 | – | > 100 | > 100 | > 100 | > 100 | > 100 | > 100 | > 100 | > 100 |
| CC(=O)OCC1OC(n2nc(Cc3ccccc3)c(=S)[nH]c2=S)C(OC(C)=O)C(OC(C)=O)C1OC(C)=O (stereo unspecified) | > 100 | 51.7 | 60.2 | > 100 | > 100 | > 100 | 41.2 | > 100 | 58.4 | 41.9 | 37.8 | > 100 | 45.4 | > 100 | > 100 | – |
| CCCCCCCCC/C=C1/CC(CO)(COC(=O)c2ccccc2)OC1=O (stereo unspecified) | 26.6 | 27.2 | 25.1 | 22 | 36 | 26.4 | 31.2 | 29.9 | – | – | 27.4 | 23.1 | 13 | 22.9 | 19.2 | 28.7 |
| CCCCOC(=O)c1cc(C(=CCC[C@H]2CC[C@@]3(C)[C@@H](CC[C@@H]4[C@@H]3CC[C@]3(C)[C@@H](C(C)CCCC(C)C)CC[C@@H]43)C2)c2cc(Cl)c(O)c(C(=O)OCCCC)c2)cc(Cl)c1O (stereo partly specified) | – | – | > 50 | > 50 | – | > 50 | > 50 | > 5 | > 50 | > 50 | – | > 50 | > 50 | > 50 | > 50 | > 50 |
| Nc1nc(=S)n(-c2ccc(Cl)cc2)c2nc3ccccc3cc12 | > 100 | > 100 | > 100 | > 100 | > 100 | > 100 | > 100 | – | > 100 | > 100 | > 100 | > 100 | > 100 | > 100 | > 100 | > 100 |
